Results from publication PMC11169864, “Application of cysteinyl prolyl ester for the synthesis of cyclic peptides containing an RGD sequence and their biological activity measurement” (Frontiers in Chemistry, 2024).
Non-standard residues stand in square brackets, D forms with d.

Test system: αvβ6 integrin
Experiment: Integrin inhibition assay (ELISA): inhibition of αvβ6 integrin binding to LAP (TGF-β1)
Parameters: species or system human
Conditions: 1 µM peptide preincubated 1 h at room temperature with 10 nM integrin αvβ6, 1.0 mM Mn2+, plate coated with 10 nM LAP (TGF-β1), absorbance at 490 nm, mean ± standard error, N = 3, numbers only in Figure 8, text gives comparisons in words
Source text: Among the RGD-binding integrins, we selected αvβ6 integrin for measurement of the inhibition activity of the cyclic peptides. The αvβ6 integrin is reported to recognize the sequence beyond the RGD motif, RGDLXXL ([Dong et al., 2014]). Therefore, the inhibition activity of the cyclic peptides is expected to vary depending on the configuration and the modification at the CPC moiety. In addition, the inhibitor of the αvβ6 integrin is still under development ([John et al., 2020]), while an efficient inhibitor, cilengitide, exists for the αvβ3 and αvβ5 integrins ([Stupp and Ruegg, 2007]). […] The inhibitory activity of the commonly used RGD tripeptide was also measured as a control. […]
The integrin inhibition assay was performed as follows. […] The bound αvβ6 integrin was detected by the biotinylated anti-Velcro polyclonal antibody and horseradish peroxidase-conjugated streptavidin. […] The bound antibody was detected by horseradish peroxidase-conjugated streptavidin (0.53 μg/mL), followed by colorimetrically measuring the amount of bound αvβ6 integrin using o-phenylenediamine (0.4 mg/mL; FUJIFILM Wako) and H2O2 (0.006%) in a 25 mM citric acid/50 mM Na2HPO4 buffer. The colorimetric reaction was stopped with 100 μL of 2.5 M H2SO4, and the absorbance of the chromogenic substrate was measured at 490 nm using a microplate reader (Molecular Devices EMax). […]

Question: With “cyclo(CRGDC[dP]) (cysteine pairing not given here) [3a]” as the substance, how does the “Inhibitory activity for binding of the αvβ6 integrin with LAP (TGF-β1)” value read?
Answer: Its value is “stronger than 3c and 3d”.

Question: How did the “Inhibitory activity for binding of the αvβ6 integrin with LAP (TGF-β1)” value turn out when “cyclo([dC]RGDC[dP]) (cysteine pairing not given here) [3b]” was run?
Answer: The value was “stronger than 3c and 3d”.
